Where only a bound is given, the exact number is not on record here.

The first test relates to HCV 1b genotype. In words: HCV Replicon assay (HCV-neo replicon cells, wild-type). It counts as cell-based. Particulars: HCV 1b genotype replicon; range class A-D; read-out: 1b EC50 (in μM or range). As to the method: An HCV Replicon assay was utilized in the present disclosure, and was prepared, conducted and validated as described in commonly owned PCT/US2006/022197 and in O′Boyle et. al. Antimicrob Agents Chemother, 2005 April; 49(4):1346-53. Assay methods incorporating luciferase reporters have also been used as described (Apath.com).
HCV-neo replicon cells and replicon cells containing mutations in the NS5A region were used to test the currently described family of compounds. The compounds were determined to have more than 10-fold less inhibitory activity on cells containing mutations than wild-type cells. Thus, the compounds of the present disclosure can be effective in inhibiting the function of the HCV NS5A protein and are understood to be as effective in combinations as previously described in application PCT/US2006/022197 and commonly owned WO/04014852. Further, the compounds of the present disclosure can be effective against the HCV 1b genotype. It should also be understood that the compounds of the present disclosure can inhibit multiple genotypes of HCV. […] In one embodiment, compounds of the present disclosure are inhibitory versus 1a, 1b, 2a, 2b, 3a, 4a, and 5a genotypes.
Turning to `CN1Cc2ccccc2C1C(=O)N1CCC[C@H]1C(=O)Nc1ccc(C#Cc2ccc(NC(=O)[C@@H]3CCCN3C(=O)C3c4ccccc4CN3C)cc2)cc1` (stereo partly drawn) [VN39, (2S,2′S)-N,N′-(1,2-ethynediyldi-4,1-phenylene)bis(1-((2-methyl-2,3-dihydro-1H-isoindol-1-yl)carbonyl)-2-pyrrolidinecarboxamide)], the EC50 lay in the range of 0.1 to 0.999 µM. On to `CCc1cccnc1C(=O)N1CCC[C@H]1C(=O)Nc1ccc(C#Cc2ccc(NC(=O)[C@@H]3CCCN3C(=O)c3ncccc3CC)cc2)cc1` [Example D36.4, (2S,2′S)-N,N′-(4,4′-(ethyne-1,2-diyl)bis(4,1-phenylene))bis(1-(3-ethylpicolinoyl)pyrrolidine-2-carboxamide)], for which the EC50 was in the range of 0.00457 to 0.099 µM.

Still in this test, the particulars now being: HCV 1b genotype replicon; read-out: 1b EC50 (in μM or range).
Turning to `CN1C[C@@H]2C[C@H]1CN2C(C(=O)N1CCC[C@H]1C(=O)Nc1ccc(C#Cc2ccc(NC(=O)[C@@H]3CCCN3C(=O)C(c3ccccc3)N3C[C@@H]4C[C@H]3CN4C)cc2)cc1)c1ccccc1` (stereo partly drawn) [VN19, (2S,2′S)-N,N′-(1,2-ethynediyldi-4,1-phenylene)bis(1-(((1S,4S)-5-methyl-2,5-diazabicyclo[2.2.1]hept-2-yl)(phenyl)acetyl)-2-pyrrolidinecarboxamide)], the EC50 came out at 0.0052 µM.

Staying with this test, now noted: Hepatitis C virus, HCV 1b genotype replicon; range class A-D; read-out: 1b EC50 (in μM or range).
In the case of `C[C@@H](C(=O)N1CCC[C@H]1C(=O)Nc1ccc(C#Cc2ccc(NC(=O)[C@@H]3CCCN3C(=O)[C@H](C)c3ccccc3)cn2)nc1)c1ccccc1` [Example D54, (2S,2′S)-N,N′-(1,2-ethynediyldi-2,5-pyridinediyl)bis(1-((2R)-2-phenylpropanoyl)-2-pyrrolidinecarboxamide)], the EC50 is below 0.00457 µM. Still for that read-out and setting: as for `O=C(Nc1ccc(C#Cc2ccc(NC(=O)[C@@H]3CCCN3C(=O)c3nc(Cl)cc4ccccc34)cc2)cc1)[C@@H]1CCCN1C(=O)CC1CC1` [Example D38, (2S)-1-((3-Chloro-1-isoquinolinyl)carbonyl)-N-(4-((4-((((2S)-1-(cyclopropylacetyl)-2-pyrrolidinyl)carbonyl)amino)phenyl)ethynyl)phenyl)-2-pyrrolidinecarboxamide], the figure is 0.00457 to 0.099 µM; as for `O=C(Nc1ccc(C#Cc2ccc(NC(=O)C3CC3)cc2)cc1)C1CC1` [Example D3, N,N′-(4,4′-(Ethyne-1,2-diyl)bis(4,1-phenylene))dicyclopropanecarboxamide], 0.00457 to 0.099 µM. Turning to `CN(C)C1(C(=O)N2CCC[C@H]2C(=O)Nc2ccc(C#Cc3ccc(NC(=O)[C@@H]4CCCN4C(=O)C4(N(C)C)Cc5ccccc5C4)cc3)cc2)Cc2ccccc2C1` [VN16, (2S,2′S)-N,N′-(1,2-ethynediyldi-4,1-phenylene)bis(1-((2-(dimethylamino)-2,3-dihydro-1H-inden-2-yl)carbonyl)-2-pyrrolidinecarboxamide)], the EC50 was in the range of 0.00457 to 0.099 µM. For the compound `CS(=O)(=O)N[C@@H](C(=O)N1CCC[C@H]1C(=O)Nc1ccc(C#Cc2ccc(NC(=O)[C@@H]3CCCN3C(=O)[C@H](NS(C)(=O)=O)c3ccccc3)cc2)cc1)c1ccccc1` [VN27, (2S,2′S)-N,N′-(1,2-ethynediyldi-4,1-phenylene)bis(1-((2R)-2-((methylsulfonyl)amino)-2-phenylacetyl)-2-pyrrolidinecarboxamide)], the EC50 is below 0.00457 µM. Same read-out and setting: as for `C[C@@](O)(C(=O)N1CCC[C@H]1C(=O)Nc1ccc(C#Cc2ccc(NC(=O)[C@@H]3CCCN3C(=O)[C@@](C)(O)c3ccccc3)cc2)cc1)c1ccccc1` [VN1, (2S,2′S)-N,N′-(1,2-ethynediyldi-4,1-phenylene)bis(1-((2S)-2-hydroxy-2-phenylpropanoyl)-2-pyrrolidinecarboxamide)], the figure is below 0.00457 µM. Regarding `O=C(Nc1ccc(C#Cc2ccc(NC(=O)[C@@H]3CCCN3C(=O)OCc3ccccc3)cc2)cc1)[C@H]1CCCO1` [Example D21, Benzyl (2S)-2-((4-((4-(((2R)-tetrahydro-2-furanylcarbonyl)amino)phenyl)ethynyl)phenyl)carbamoyl)-1-pyrrolidinecarboxylate], the EC50 was in the range of 0.1 to 0.999 µM. Regarding `CC(=O)N(C)C(C(=O)N1CCC[C@H]1C(=O)Nc1ccc(C#Cc2ccc(NC(=O)[C@@H]3CCCN3C(=O)C(c3ccccc3)N(C)C(C)=O)cc2)cc1)c1ccccc1` (stereo partly drawn) [VN46, (2S,2′S)-N,N′-(1,2-ethynediyldi-4,1-phenylene)bis(1-((acetyl(methyl)amino)(phenyl)acetyl)-2-pyrrolidinecarboxamide)], the EC50 lay within 0.1 to 0.999 µM. For the compound `CC(=O)N1CCC[C@H]1C(=O)Nc1ccc(C#Cc2ccc(NC(=O)C3CCN(C(=O)OCc4ccccc4)C3)cc2)cc1` (stereo partly drawn) [Example D4, Benzyl 3-((4-((4-((1-acetyl-L-prolyl)amino)phenyl)ethynyl)phenyl)carbamoyl)-1-pyrrolidinecarboxylate], the EC50 is 1 to 10 µM. Still for that read-out and setting: as for `O=C(Nc1ccc(C#Cc2ccc(NC(=O)[C@@H]3CCCN3C(=O)OCc3ccccc3)cc2)cc1)[C@@H]1CCCN1C(=O)OCc1ccccc1` [Example D1, Dibenzyl(2S,2′S)-2,2′-(1,2-ethynediylbis(4,1-phenylenecarbamoyl))di(1-pyrrolidinecarboxylate)], the figure is 0.00457 to 0.099 µM; as for `CC(C)(C)O[C@@H]1C[C@@H](C(=O)Nc2ccc(C#Cc3ccc(NC(=O)[C@@H]4C[C@@H](OC(C)(C)C)CN4C(=O)OCc4ccccc4)cc3)cc2)N(C(=O)OCc2ccccc2)C1` [Example D8, Dibenzyl (2S,4R,2′S,4′R)-2,2′-(1,2-ethynediylbis(4,1-phenylenecarbamoyl))bis(4-tert-butoxy-1-pyrrolidinecarboxylate)], 1 to 10 µM; as for `O=C(Nc1ccc(C#Cc2ccc(NC(=O)[C@@H]3CCCN3C(=O)C(F)c3ccccc3)cc2)cc1)[C@@H]1CCCN1C(=O)C(F)c1ccccc1` (stereo partly drawn) [VN8, (2S,2′S)-N,N′-(1,2-ethynediyldi-4,1-phenylene)bis(1-(fluoro(phenyl)acetyl)-2-pyrrolidinecarboxamide)], below 0.00457 µM. Still for that read-out and setting: as for `COc1cccc2c(C(=O)N3CCC[C@H]3C(=O)Nc3ccc(C#Cc4ccc(NC(=O)[C@@H]5CCCN5C(=O)Cc5cccnc5)cc4)cc3)nc(Cl)cc12` [Example D45, (2S)-1-((3-Chloro-5-methoxy-1-isoquinolinyl)carbonyl)-N-(4-((4-((((2S)-1-(3-pyridinylacetyl)-2-pyrrolidinyl)carbonyl)amino)phenyl)ethynyl)phenyl)-2-pyrrolidinecarboxamide], the figure is 0.1 to 0.999 µM; as for `CC(=O)O[C@@H]1C[C@@H](C(=O)Nc2ccc(C#Cc3ccc(NC(=O)[C@@H]4CCCN4C(C)=O)cc3)cc2)N(C(=O)Cc2ccccc2)C1` [Example D27, (3R,5S)-5-((4-((4-((((2S)-1-Acetyl-2-pyrrolidinyl)carbonyl)amino)phenyl)ethynyl)phenyl)carbamoyl)-1-(phenylacetyl)-3-pyrrolidinyl acetate], 0.00457 to 0.099 µM.

With `C[C@](O)(C(=O)N1CCC[C@H]1C(=O)Nc1ccc(C#Cc2ccc(NC(=O)[C@@H]3CCCN3C(=O)[C@](C)(O)c3ccccc3)cc2)cc1)c1ccccc1` [VN2, (2S,2′S)-N,N′-(1,2-ethynediyldi-4,1-phenylene)bis(1-((2R)-2-hydroxy-2-phenylpropanoyl)-2-pyrrolidinecarboxamide)], the EC50 is below 0.00457 µM. Same read-out and setting: as for `O=C(Nc1ccc(C#Cc2ccc(NC(=O)[C@@H]3CCCN3C(=O)Cc3ccccc3)cn2)nc1)[C@@H]1CCCN1C(=O)Cc1ccccc1` [Example D52, (2S,2′S)-N,N′-(6,6′-(ethyne-1,2-diyl)bis(pyridine-6,3-diyl))bis(1-(2-phenylacetyl)pyrrolidine-2-carboxamide)], the figure is 0.00457 to 0.099 µM.

Staying with this test, now noted: Hepatitis C virus, HCV 1b genotype replicon; read-out: 1b EC50 (in μM or range).
`O=C(Nc1cccc(C#Cc2cccc(NC(=O)[C@@H]3CCCN3C(=O)OCc3ccccc3)n2)n1)[C@@H]1CCCN1C(=O)OCc1ccccc1` [YQ1, dibenzyl (2S,2′S)-2,2′-(1,2-ethynediylbis(6,2-pyridinediylcarbamoyl))di(1-pyrrolidinecarboxylate)]: the EC50 is 0.007 µM.

Turning to `CC(=O)N1CCC[C@H]1C(=O)Nc1ccc(C#Cc2ccc(NC(=O)[C@@H]3CCCN3C(=O)c3cccc4ccccc34)nc2)cc1` [Example D59, (2S)-1-Acetyl-N-(4-((6-((((2S)-1-(1-naphthoyl)-2-pyrrolidinyl)carbonyl)amino)-3-pyridinyl)ethynyl)phenyl)-2-pyrrolidinecarboxamide], the EC50 was 1.48 µM.

Turning to `CC(=O)N1CCC[C@H]1C(=O)Nc1ccc(C#Cc2ccc(NC(=O)[C@@H]3CCCN3C(=O)c3nccc4ccccc34)nc2)cc1` [Example D56, (2S)-1-Acetyl-N-(4-((6-((((2S)-1-(1-isoquinolinylcarbonyl)-2-pyrrolidinyl)carbonyl)amino)-3-pyridinyl)ethynyl)phenyl)-2-pyrrolidinecarboxamide], the EC50 was 2.09 µM.

Consider `CC(=O)N1CCC[C@H]1C(=O)Nc1ccc(C#Cc2ccc(NC(=O)C3CC(=O)N(CCc4cccs4)C3)cc2)cc1` (stereo partly drawn) [Example D9, 1-Acetyl-N-(4-((4-(((5-oxo-1-(2-(2-thienyl)ethyl)-3-pyrrolidinyl)carbonyl)amino)phenyl)ethynyl)phenyl)-L-prolinamide], for which the EC50 amounted to 2.42 µM.

Consider `O=C(CC1CC1)Nc1ccc(C#Cc2ccc(NC(=O)[C@@H]3CCCN3C(=O)[C@H]3CCCO3)cc2)cc1` [Example D23, N-(4-((4-((cyclopropylacetyl)amino)phenyl)ethynyl)phenyl)-1-((2R)-tetrahydro-2-furanylcarbonyl)-L-prolinamide], for which the EC50 came to 2.6 µM.

As a reminder, the EC50 is the concentration needed to bring the measured effect to its halfway point.

The record behind these values is patent US8383094B2, “Hepatitis C virus inhibitors” (Bristol-Myers Squibb Company, priority 2008, dated 2013).
